Literature values, collected in patent EP0801943A2, “Cosmetic and dermatological photoprotective compositions containing a triazine derivative and alkyl and/or dialkylesters of alpha, omega-alkanedicarboxylic acid” (Beiersdorf Aktiengesellschaft, priority 1996, dated 1997).

Settings: maximum amount of the filter that known solvents (Bekannte Lösungsmittel) can dissolve; prior-art statement, no test described

Löslichkeit in Lipiden: ≤ 15 Gew.-%
SMILES: CCCCC(CC)COC(=O)c1ccc(Nc2nc(Nc3ccc(C(=O)OCC(CC)CCCC)cc3)nc(Nc3ccc(C(=O)OCC(CC)CCCC)cc3)n2)cc1 (stereo not shown) [UVINUL® T 150, 4,4',4''-(1,3,5-Triazin-2,4,6-triyltriimino)-tris-benzoesäure-tris(2-ethylhexylester)]
